Data from the supplement of paper PMC10307832.

Key:
Test in all cases: relative viability (nuclei count vs DMSO), 5 days (fraction); higher = more cells survive
AT9283 + Olaparib = compound: O=C(Nc1c[nH]nc1-c1nc2ccc(CN3CCOCC3)cc2[nH]1)NC1CC1 [AT9283] + O=C(c1cc(Cc2n[nH]c(=O)c3ccccc23)ccc1F)N1CCN(C(=O)C2CC2)CC1 [Olaparib] (partner 8 µM)
Outline: (§1)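 For relative viability, nuclei counts in treated wells were divided by those in vehicle wells. Lung cancer cell lines had been pin-tool dosed in 1536-well plates the day after seeding and cultured for 5 days, then fixed and stained in one step (final 0.05% Triton X-100, 1% formaldehyde, 1 ug/ml Hoechst) and imaged at 4×. Doses were one drug alone or a fixed anchor-drug dose plus five library-drug doses (not always all listed) in √10 steps, and values are duplicate-plate medians.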

AT9283 + Vorinostat = compound: O=C(Nc1c[nH]nc1-c1nc2ccc(CN3CCOCC3)cc2[nH]1)NC1CC1 [AT9283] + O=C(CCCCCCC(=O)Nc1ccccc1)NO [Vorinostat] (partner 1 µM)
Outline: as §1

Erlotinib + AZD7762 = compound: C#Cc1cccc(Nc2ncnc3cc(OCCOC)c(OCCOC)cc23)c1 [Erlotinib] + NC(=O)Nc1cc(-c2cccc(F)c2)sc1C(=O)N[C@H]1CCCNC1 [AZD7762] (partner 0.2 µM)
Outline: as §1

AT9283 + Tozasertib = compound: O=C(Nc1c[nH]nc1-c1nc2ccc(CN3CCOCC3)cc2[nH]1)NC1CC1 [AT9283] + Cc1cc(Nc2cc(N3CCN(C)CC3)nc(Sc3ccc(NC(=O)C4CC4)cc3)n2)n[nH]1 [Tozasertib] (partner 0.1 µM)
Outline: as §1

AT9283 + Pemetrexed = compound: O=C(Nc1c[nH]nc1-c1nc2ccc(CN3CCOCC3)cc2[nH]1)NC1CC1 [AT9283] + Nc1nc2[nH]cc(CCc3ccc(C(=O)N[C@@H](CCC(=O)O)C(=O)O)cc3)c2c(=O)[nH]1 [Pemetrexed] (partner 0.2 µM)
Outline: as §1

Cell Line	relative viability (AT9283 + Olaparib; first compound 0.003 µM)	relative viability (AT9283 + Olaparib; first compound 0.03 µM)	relative viability (AT9283 + Olaparib; first compound 0.09487 µM)	relative viability (AT9283 + Olaparib; first compound 0.3 µM)	relative viability (AT9283 + Vorinostat; first compound 0.003 µM)	relative viability (AT9283 + Vorinostat; first compound 0.03 µM)	relative viability (AT9283 + Vorinostat; first compound 0.09487 µM)	relative viability (AT9283 + Vorinostat; first compound 0.3 µM)	relative viability (Erlotinib + AZD7762; first compound 0.02 µM)	relative viability (Erlotinib + AZD7762; first compound 0.2 µM)	relative viability (Erlotinib + AZD7762; first compound 0.6325 µM)	relative viability (Erlotinib + AZD7762; first compound 2 µM)	relative viability (AT9283 + Tozasertib; first compound 0.003 µM)	relative viability (AT9283 + Tozasertib; first compound 0.03 µM)	relative viability (AT9283 + Tozasertib; first compound 0.09487 µM)	relative viability (AT9283 + Tozasertib; first compound 0.3 µM)	relative viability (AT9283 + Pemetrexed; first compound 0.003 µM)	relative viability (AT9283 + Pemetrexed; first compound 0.03 µM)	relative viability (AT9283 + Pemetrexed; first compound 0.09487 µM)	relative viability (AT9283 + Pemetrexed; first compound 0.3 µM)
NCI-H1755	0.987	0.859	0.53	0.45	0.74	0.784	0.54	0.398	0.487	0.438	0.499	0.379	0.624	0.469	0.419	0.367	0.438	0.415	0.361	0.301
LCLC-103H	0.77	0.784	0.467	0.37	0.745	0.566	0.355	0.306	0.801	0.875	0.874	0.669	0.45	0.347	0.187	0.259	0.447	0.411	0.343	0.324
NCI-H1666	0.739	0.724	0.608	0.533	1.18	0.769	0.527	0.606	0.72	0.834	0.732	0.633	0.671	0.479	0.428	0.43	0.775	0.818	0.718	0.612
LC-2-ad	0.708	0.647	0.304	0.196	0.696	0.251	0.199	0.157	0.843	0.508	0.514	0.389	0.422	0.285	0.321	0.25	0.258	0.253	0.219	0.164
PC-14	0.264	0.151	0.074	0.0669	0.79	0.17	0.107	0.114	0.206	0.178	0.12	0.13	0.504	0.387	0.0959	0.0742	0.145	0.0954	0.0681	0.0563
201T	0.867	0.815	0.356	0.335	0.844	0.653	0.471	0.304	0.596	0.57	0.619	0.546	0.871	0.6	0.35	0.302	0.292	0.297	0.279	0.306
NCI-H1651	0.176	0.189	0.209	0.243	0.449	0.39	0.393	0.218	0.365	0.428	0.406	0.304	0.699	0.638	0.506	0.316	0.48	0.506	0.528	0.378
RERF-LC-KJ	0.962	0.485	0.267	0.237	0.636	0.473	0.346	0.264	0.846	0.944	0.949	0.608	0.42	0.242	0.203	0.247	0.465	0.36	0.253	0.225
NCI-H1915	0.266	0.228	0.17	0.143	0.489	0.466	0.175	0.152	0.72	0.675		0.659	0.347	0.3	0.195	0.179	0.547	0.431	0.326	0.254
CAL-12T	0.734	0.536	0.307	0.222	0.804	0.394	0.237	0.166	0.63	0.688	0.529	0.544	0.31	0.29	0.212	0.215	1.36	1.03	0.572	0.31
NCI-H1975	0.731	0.723	0.783	0.647	0.742	0.666	0.504	0.281	0.704	0.682	0.605	0.495	0.728	0.664	0.58	0.311	0.295	0.282	0.27	0.276
PC-3 [JPC-3]	1.31	1.03	0.844	0.607	0.562	0.694	0.526	0.46	0.639	0.522	0.415	0.356	0.924	0.814	0.492	0.58	0.966	1.06	0.717	0.568
HARA	0.756	0.278	0.205	0.179	0.365	0.453	0.122	0.0962	0.385	0.383	0.333	0.259	0.154	0.1	0.0825	0.0852	0.217	0.239	0.167	0.166
ChaGo-K-1	0.444	0.352	0.252	0.203	0.662	0.447	0.325	0.216		0.922	0.845	0.76	0.196	0.208	0.215	0.236	0.239	0.247	0.188	0.166
NCI-H2347	0.595	0.615	0.477	0.413	0.826	0.566	0.357	0.288	0.689	0.856	0.783	0.655	0.517	0.456	0.336	0.326	0.419	0.417	0.376	0.338
NCI-H1793	0.986	0.841	0.451	0.257	0.709	0.349	0.278	0.281	0.683	0.31	0.438	0.258	0.327	0.383	0.201	0.171	0.876	1.07	0.355	0.306
LK-2	0.742	0.312	0.113	0.103	0.282	0.185	0.146	0.138	0.376	0.366	0.438	0.268	0.174	0.225	0.172	0.209	0.196	0.135	0.136	0.105
NCI-H358	0.513	0.202	0.091	0.105	0.54	0.119	0.0833	0.0819	0.537	0.361	0.429	0.201	0.108	0.0953	0.107	0.0809	0.164	0.124	0.111	0.112
NCI-H3122	0.561	0.571	0.351	0.241	0.851	0.978	0.598	0.138	0.948	1.05	1		0.338	0.348	0.319	0.113	0.2	0.191	0.176	0.123
LXF-289	1.13	0.98	0.0877	0.0796	0.751	0.56	0.224	0.168	1.13	1.07	1.05	1.03	0.2	0.127	0.0989	0.0888	0.827	0.861	0.215	0.128
NCI-H2126	0.978	0.938	0.698	0.364	0.729	0.552	0.486	0.249	1.03	1.01	0.892	0.688	0.788	0.506	0.341	0.313	0.684	0.693	0.559	0.358
HOP-62	0.514	0.308	0.137	0.201	0.637	0.262	0.183	0.186	0.702	0.638	0.541		0.34	0.263	0.213	0.265	0.439	0.192	0.144	0.153
SW 900	0.882	0.783	0.507	0.312	0.424	0.358	0.298	0.199	0.783	0.52	0.557	0.443	0.476	0.526	0.359	0.307	0.326	0.468	0.423	0.32
NCI-H596	0.653	0.663	0.619	0.567	0.642	0.675	0.686	0.428	1.04	0.954	1.05	0.87	0.943	0.839	0.933	0.553	0.512	0.574	0.529	0.462
NCI-H1944	0.401	0.361	0.205	0.206	0.532	0.274	0.214	0.205	0.541	0.419	0.538	0.387	0.256	0.257	0.23	0.224	0.627	0.5	0.232	0.191
NCI-H1395	0.414	0.46	0.38	0.358	0.579	0.494	0.337	0.299	0.421	0.367	0.338	0.407	0.61	0.553	0.399	0.355	0.799	0.764	0.322	0.34
NCI-H322M	0.834	0.58	0.518	0.453	0.87	0.579	0.497	0.407	0.464	0.481	0.371	0.395	0.499	0.511	0.395	0.443	0.605	0.438	0.443	0.482
